Results: patent US20150297593A1 (priority 2012, published 2015)

Tests used:
[1] = test system: influenza A virus (Mem71, H3N1); type: in vivo, Rag2−/− mice
[2] = test system: nuocytes (CD45+Lin−ST2+cKit+Sca1+); type: in vivo, BALB/c mice
[3] = test system: human nuocytes isolated from the BAL fluid of patients with asthma; type: cell-based; conditions: imatinib 1 μM; rIL-2 50 ng/ml plus rIL-33 100 ng/ml for 24 hrs
[4] = test system: recombinant IL-33 (rIL-33)-induced AHR; conditions: mouse, in vivo
[5] = test system: RSV; test: RSV-induced AHR model; type: in vivo, BALB/c mice; conditions: 100 mg/kg i.p. on day 1 post infection
[6] = test system: influenza A virus (Mem71, H3N1); conditions: 100 mg/kg i.p. on day 1; sera on day 11
[7] = test system: influenza A virus (Mem71, H3N1); set-up: species or system BALB/c mice; conditions: mouse, in vivo
[8] = test system: mouse lung nuocytes (Lin−ST2+); type: cell-based; conditions: IL-2 50 ng/ml plus rIL-33 100 ng/ml, imatinib 0.1-1 μM
[9] = test system: nuocytes (CD45+Lin−ST2+ckit+Sca1+); test: FACS count of BAL and lung nuocytes after rIL-33 in Rag2−/− mice; conditions: imatinib 100 mg/kg i.p. on day 1, day 5
Method: In FIGS. 5C and 5D, BAL cells (FIG. 5C) or lung cells (FIG. 5D) were taken from 8 wk old Rag2^−/− mice (n=5 per group) on day 5, and further stimulated with PMA+ionomycin for 5 hr. The percentage of lung CD45^+Lin^−ST2^+ckit^+Sca1^+ cells was assessed by FACS. Third panels show dot plots for Lin^−ST2^+ cells in lung leukocytes (CD45^+). After gating on the Lin^−ST2^+cKit^+ cells, the cells were analyzed for c-Kit and Sca1 expression (fourth panels).
Whole lungs were flushed with PBS injected into the right ventricle, removed, and rinsed in PBS. […] The digest was passed multiple times through an 18-gauge needle and allowed to incubate for another 30 min before filtered. RBCs were removed by 4-min incubation in lysis buffer (Sigma-Aldrich, St. Louis, Mo.) at room temperature. Single-cell suspensions of spleen lymphocytes were obtained by mechanical disruption and RBC lysis.
Cells were preincubated with anti-Fcy blocking mAb (2.4G2) and washed before staining. Cells were stained with anti-mouse PE-Texas red-conjugated CD45, FITC-conjugated CD3, CD19, CD11b, CD11c, CD49b, F4/80, Fc□R1; APC conjugated cKit,; PerCP conjugated cKit, Alexa Fluor 700-conjugated Sca1; PE conjugated biotinylated anti-ST2 antibodies. […] Cells were analyzed on a BDCanto flow cytometer (BD Biosciences, Franklin Lakes, N.J.) using FlowJo 8.3.3 software (Tree Star, Inc., Ashland, Oreg.).

[10] = 100 mg/kg on day 1, day 5 post-infection
[11] = after imatinib treatment, data not shown

Cc1ccc(NC(=O)c2ccc(CN3CCN(C)CC3)cc2)cc1Nc1nccc(-c2cccnc2)n1 [imatinib]
H3N1 infection-induced inflammation in Rag2−/− mice ([1]; 100 mg/kg i.p. on day 1, […]): inhibits | influenza-induced AHR in Rag2−/− mice ([1]; mouse, in vivo): blocked | total number of NKT cells in the lung ([2]; 100 mg/kg on day 1, day 5): had no effect | total number of conventional T cells in the lung ([2]; 100 mg/kg on day 1, day 5): had no effect | frequency and absolute number of nuocytes in BAL fluid [2, 10]: reduced | frequency and absolute number of nuocytes in the lungs [2, 10]: reduced | frequency of NKT cells in BAL fluid [2, 11]: slightly reduced | total number of BAL fluid cells [2, 11]: slightly reduced | production of IL-13 by human nuocytes [3]: blocked | AHR induced with recombinant IL-33 [4]: could block | development of RSV-induced inflammation [5]: blocked | development of RSV-induced AHR ([5]; assessed 6 days post-infection): blocked | anti-influenza IgG production [6]: no significant reduction | inflammation (BAL fluid cells) [7]: abolished | lung inflammation (BAL fluid cells) [7]: abolished | secretion of IL-5 by nuocytes (ELISA) [8]: reduced | secretion of IL-13 by nuocytes (ELISA) [8]: reduced | proliferation of mouse lung nuocytes (3H-thymidine incorporation) ([8]; dose-dependent): blocked | number of BAL and lung nuocytes (airway nuocytophilia induced with rIL-33) [9]: reduced

Cc1ccc(NC(=O)c2ccc(CN3CCN(C)CC3)cc2)cc1Nc1nc(-c2cccnc2)cs1 [masitinib]
H3N1-induced AHR [7]: abolished | H3N1-induced inflammation [7]: abolished
